Patent US8288375B2, “Fungicidal bicyclic pyrazoles” (E.I. du Pont de Nemours and Company, priority 2007, dated 2012)

Columns and labels:
Assay type in all cases: in vivo
[1] = system: Puccinia recondite f sp. tritici; assay: Test B: wheat leaf rust, test suspension sprayed on wheat seedlings, disease rating; details: 200 ppm test suspension;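 further: 200 ppm unless marked * meaning 40 ppm or ** meaning 10 ppm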
Septoria tritici = assay: Test E: wheat leaf blotch, test suspension sprayed on wheat seedlings, disease rating; details: 200 ppm test suspension;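 further: 200 ppm unless marked * meaning 40 ppm or ** meaning 10 ppm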
Fusarium graminearum = assay: whole plant or invertebrate; details: 200 ppm test suspension
Septoria nodorum = assay: Test D: wheat glume blotch, test suspension sprayed on wheat seedlings, disease rating; details: 200 ppm test suspension
[2] = system: Erysiphe graminis f. sp. tritici; assay: Test A: wheat powdery mildew, test suspension sprayed on wheat seedlings, disease rating; details: 200 ppm test suspension; 100 = 100% disease control, 0 = no control
Rhizoctonia oryzae = assay: Test I: turf brown patch, test suspension sprayed on creeping bent grass seedlings, disease rating; details: 200 ppm test suspension
Botrytis cinerea = assay: Test H: tomato Botrytis, test suspension sprayed on tomato seedlings, disease rating; details: 200 ppm test suspension
Pythium aphanidermatum = assay: Test L: bluegrass pythium blight, test suspension sprayed on bluegrass seedlings, disease rating; details: 200 ppm test suspension;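 further: 200 ppm unless marked * meaning 40 ppm or ** meaning 10 ppm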
Phytophthora infestans = assay: whole plant or invertebrate; details: 200 ppm test suspension

| Compound | Test B disease control rating [1] | Test E disease control rating (Septoria tritici) | Test C disease control rating (Fusarium graminearum) | Test D disease control rating (Septoria nodorum) | Test A disease control rating [2] | Test I disease control rating (Rhizoctonia oryzae) | Test H disease control rating (Botrytis cinerea) | Test L disease control rating (Pythium aphanidermatum) | Test J disease control rating (Phytophthora infestans) |
| --- | --- | --- | --- | --- | --- | --- | --- | --- | --- |
| CCNc1nccc(-c2c(-c3ccccc3)nn3c2CCCC3)n1 [compound 143] | 100% | 100% | 99% | 100% | 96% | 86% | – | – | – |
| CNc1nccc(-c2c(-c3cccc(C)c3)nn3c2CCCC3)n1 [compound 187] | 99% | 99% | – | 92% | 79% | – | 92% | – | – |
| Fc1cc(F)cc(-c2nn3c(c2-c2ccnc(NC4CC4)n2)CCC3)c1 [compound 104] | 0% | 88% | 55% | 0% | 0% | – | – | 91% | 88% |
| Fc1ccc(-c2nn3c(c2-c2ccnc(NC4CC4)n2)COCC3)c(F)c1 [compound 126] | 86% | 70% | 99% | 82% | 0% | – | – | 99% | 87% |
| CC(C)Nc1nccc(-c2c(-c3ccsc3)nn3c2COCC3)n1 [compound 118] | 86% | 82% | 98% | 78% | 0% | – | – | 99% | 80% |
| CCNc1nccc(-c2c(-c3ccccc3)nn3c2COCC3)n1 [compound 183] | 100% | 100% | 99% | 97% | – | – | 81% | – | – |
| CCC(C)Nc1nccc(-c2c(-c3cccc(F)c3)nn3c2CCC3)n1 (stereo not drawn) [compound 101] | 89% | 94% | 99% | 92% | 0% | – | – | 91% | 57% |
| COc1cc(Nc2nccc(-c3c(-c4ccccc4)nn4c3CCCC4)n2)ccc1F [compound 182] | 77% | 100% | – | 97% | 92% | – | 81% | – | – |
| Fc1ccc(-c2nn3c(c2-c2ccnc(N4CCC4)n2)CCCC3)cc1 [compound 82] | 91% | 97% | 96% | 60% | 81% | – | – | 0% | 99% |
| CC(C)Nc1nccc(-c2c(-c3ccc(F)cc3)nn3c2CSCC3)n1 [compound 110] | 95% | 17% | 92% | 60% | 0% | – | – | 100% | 99% |
| Fc1ccccc1-c1nn2c(c1-c1ccnc(NC3CC3)n1)CCC2 [compound 99] | 94% | 98% | 99% | 89% | 0% | – | – | 100% | 99% |
| CC(C)Nc1nccc(-c2c(-c3ccccc3F)nn3c2CCC3)n1 [compound 97] | 55% | 61% | 100% | 82% | 0% | – | – | 100% | 96% |
| COc1nccc(-c2c(-c3ccc(F)cc3)nn3c2CCCC3)n1 [Compound 105] | 94% | 100% | 94% | 78% | 0% | – | – | 0% | 73% |
| CCN1CCCC1CNc1nccc(-c2c(-c3ccc(F)cc3)nn3c2CCCC3)n1 (stereo not drawn) [compound 41] | 79% | 50% | 0% | 0% | 0% | – | – | 91% | 0% |
| CC(COC(=O)c1cccnc1)Nc1nccc(-c2c(-c3ccc(F)cc3)nn3c2CCCC3)n1 (stereo not drawn) [compound 68] | 98% | 93% | 99% | 95% | 0% | – | – | 100% | 95% |
| CC(CS(=O)(=O)[O-])Nc1nccc(-c2c(-c3ccc(F)cc3)nn3c2CCCC3)n1.[Na+] (stereo not drawn) [compound 64] | 0% | 0% | 0% | 0% | 0% | – | – | 0% | 0% |
| c1cc(-c2c(-c3ccsc3)nn3c2CCCC3)nc(NC2CC2)n1 [compound 180] | 99% | 100% | 96% | 98% | 79% | – | 96% | – | – |
